These results are taken from article PMC7539012, “Hyperphosphorylated tau aggregation and cytotoxicity modulators screen identified prescription drugs linked to Alzheimer's disease and cognitive functions” (Scientific Reports, 2020).

Structures can show the parent of a compound that is named as a salt.

In one test the test system is T1, 1N4R p-tau.
T1 construct: made in house; host or cells: E. coli (PIMAX system)
The test can be described thus: p-tau aggregation modulator screen of 1280-compound library (ThS fluorescence net change over 16 h).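 Note: 30 µM compound with 6 µM p-tau over 16 h.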 It is filed as biochemical.
Details: not given
On to `CCC(=O)O[C@H]1CC[C@H]2[C@@H]3CCC4=CC(=O)CC[C@]4(C)[C@H]3CC[C@]12C` [Testosterone propionate], for which the ThS net change turned out to be 452.
The same measure, in the same setting: to `C=C(NC(=O)C(=C)NC(=O)c1csc(C2=N[C@@H]3c4csc(n4)[C@H]4NC(=O)c5csc(n5)[C@H]([C@](C)(O)[C@@H](C)O)NC(=O)[C@H]5CSC(=N5)/C(=C/C)NC(=O)[C@H]([C@@H](C)O)NC(=O)c5csc(n5)[C@]3(CC2)NC(=O)[C@H](C)NC(=O)C(=C)NC(=O)[C@H](C)NC(=O)[C@H]([C@@H](C)CC)N[C@@H]2C=Cc3c([C@H](C)O)cc(nc3[C@H]2O)C(=O)O[C@@H]4C)n1)C(N)=O` [Thiostrepton] belongs 503.

Staying with this test, now noted: 1280-compound library screen; ThS fluorescence net change over 16 h.
The compound `[H]/N=C(/NCCCCC)N/N=C/c1c[nH]c2ccc(OC)cc12` [Tegaserod maleate] showed a ThS net change of 379.
Still for that read-out and setting: in the case of `Cn1nnc2c(C(N)=O)ncn2c1=O` [Temozolomide] it was 380; in that of `CCCCNc1ccc(C(=O)OCCN(C)C)cc1.Cl` [Tetraca?ne hydrochloride], 401; in that of `Cn1cnc2c1c(=O)[nH]c(=O)n2C` [Theobromine], 392.
Consider `Cn1c(=O)c2[nH]cnc2n(C)c1=O` [Theophylline monohydrate], for which the ThS net change worked out at 398.
Still for that read-out and setting: in the case of `Cc1ncc(C[n+]2csc(CCO)c2C)c(N)n1` [Thiamine hydrochloride] it was 383.
Consider `CS(=O)(=O)c1ccc([C@@H](O)[C@@H](CO)NC(=O)C(Cl)Cl)cc1` [Thiamphenicol], for which the ThS net change stood at 380.
`Nc1nc(=S)c2ncn([C@@H]3O[C@H](CO)[C@@H](O)[C@H]3O)c2[nH]1` [Thioguanosine] displayed a ThS net change of 385.
Regarding `CC(C(=O)O)c1ccc(C(=O)c2ccccc2)s1` (stereo not shown) [Tiaprofenic acid], the ThS net change is given as 381.
In the case of `CCS(=O)(=O)CCn1c([N+](=O)[O-])cnc1C` [Tinidazole], the ThS net change was 392.
With `Clc1ccc2nsnc2c1NC1=NCCN1` [Tizanidine HCl], the ThS net change worked out at 386.
Still for that read-out and setting: to `Cc1cccc(C)c1NC(=O)C(C)N` (stereo not shown) [Tocainide hydrochloride] belongs 412.

Staying with this test, now noted: 1280-compound library screen; […].
In turn, `O.O=C1C(O)=C(O)C(=O)C(O)=C1O` [Tetrahydroxy-1,4-quinone hydrate] displayed a ThS net change of 391.
On the same count and under the same terms, to `S=C(NC1CCCCC1)N1CCC(c2cnc[nH]2)CC1` [Thioperamide maleate] belongs 385; to `C#C[C@]1(O)CC[C@H]2[C@@H]3[C@H](C)CC4=C(CCC(=O)C4)[C@H]3CC[C@@]21C` [Tibolone], 381.
On the same count and under the same terms, to `CC1(C)S[C@@H]2[C@H](NC(=O)[C@H](C(=O)O)c3ccsc3)C(=O)N2[C@H]1C(=O)O` [Ticarcillin sodium] belongs 407.

Still in this test, the particulars now being: library screen, ThS fluorescence net change over 16 h with p-tau.
With `Cc1scc2c1N(C(=O)CN1CCN(C)CC1)c1ccccc1NC2=O` [Telenzepine dihydrochloride], the ThS net change was 326.
For the compound `CC(C)N1CCN(c2ccc(OCC3COC(Cn4cncn4)(c4ccc(Cl)cc4Cl)O3)cc2)CC1` (stereo not shown) [Terconazole], the ThS net change is 326.
Still for that read-out and setting: in the case of `CC(C)(C)c1ccc(C(O)CCCN2CCC(C(O)(c3ccccc3)c3ccccc3)CC2)cc1` (stereo not shown) [Terfenadine] it was 251; in that of `CN(C)[C@@H]1C(O)=C(C(N)=O)C(=O)[C@@]2(O)C(O)=C3C(=O)c4c(O)cccc4[C@@](C)(O)[C@H]3C[C@@H]12` [Tetracycline hydrochloride], 202; in that of `CCSc1ccc2c(c1)N(CCCN1CCN(C)CC1)c1ccccc1S2.O=C(O)CC(O)C(=O)O.O=C(O)CC(O)C(=O)O` [Thiethylperazine dimalate], 317.
Take `CN1CCN(CCCN2c3ccccc3Sc3ccc(S(=O)(=O)N(C)C)cc32)CC1.CS(=O)(=O)O.CS(=O)(=O)O` [Thioproperazine dimesylate]: the ThS net change stood at 314.
Take `CSc1ccc2c(c1)N(CCC1CCCCN1C)c1ccccc1S2` (stereo not shown) [Thioridazine hydrochloride]: the ThS net change was 252.
The compound `CCCCCCCCCCCCCCCC[N+](C)(C)CCN(Cc1ccc(OC)cc1)c1ncccn1` [Thonzonium bromide] came in with a ThS net change of 312.
The same measure, in the same setting: in the case of `N[C@@H](Cc1cc(I)c(Oc2cc(I)c(O)c(I)c2)c(I)c1)C(=O)O` [Thyroxine (L)] it was 301; in that of `Clc1ccc(C(Cn2ccnc2)OCc2ccsc2Cl)c(Cl)c1` (stereo not shown) [Tioconazole], 309.

Staying with this test, now noted: p-tau aggregation modulator screen of 1280-compound library; ThS fluorescence net change.
On to `COc1ccc2[nH]c([S+]([O-])Cc3ncc(C)c(OC)c3C)nc2n1` (stereo not shown) [Tenatoprazole], for which the ThS net change came out at 371.
In turn, `CC(C)(C)NCC(O)c1cc(O)cc(O)c1.CC(C)(C)NCC(O)c1cc(O)cc(O)c1.O=S(=O)(O)O` (stereo not shown) [Terbutaline hemisulfate] came in with a ThS net change of 339.
Turning to `c1ccc2c(c1)CCCC2C1=NCCN1` (stereo not shown) [Tetrahydrozoline hydrochloride], the ThS net change is 362.
For the compound `c1ccc(C2CN3CCSC3=N2)cc1` (stereo not shown) [Tetramisole hydrochloride], the ThS net change stood at 368.
As to `O=C1CCC(N2C(=O)c3ccccc3C2=O)C(=O)N1` (stereo not shown) [Thalidomide], the ThS net change amounted to 334.
The same measure, in the same setting: in the case of `c1ccc2[nH]c(-c3cscn3)nc2c1` [Tiabendazole] it was 355; in that of `CCN(CC)CCNC(=O)c1cc(S(C)(=O)=O)ccc1OC` [Tiapride hydrochloride], 349.
Regarding `NC[C@H]1O[C@H](O[C@H]2[C@H](O)[C@@H](O[C@H]3O[C@H](CO)[C@@H](O)[C@H](N)[C@H]3O)[C@H](N)C[C@@H]2N)[C@H](N)C[C@@H]1O` [Tobramycin], the ThS net change is 360.
On the same count and under the same terms, in the case of `CCOC(=O)NNc1nncc2ccccc12` [Todralazine hydrochloride] it was 334.
On the same count and under the same terms, to `c1ccc(CC2=NCCN2)cc1` [Tolazoline hydrochloride] belongs 360.

The test is the same for the next values; noted with them: p-tau aggregation modulator screen of 1280-compound library; […].
Regarding `CC/C(=C(\c1ccccc1)c1ccc(OCCN(C)C)cc1)c1ccccc1` [Tamoxifen citrate], the ThS net change was determined as 336.
In turn, `COc1cc2nc(N3CCN(C(=O)C4CCCO4)CC3)nc(N)c2cc1OC` (stereo not shown) [Terazosin hydrochloride] had a ThS net change of 366.
Still for that read-out and setting: in the case of `COc1c(O[C@@H]2O[C@H](CO)[C@@H](O)[C@H](O)[C@H]2O)cc2c(c1OC)-c1ccc(SC)c(=O)cc1[C@@H](NC(C)=O)CC2` [Thiocolchicoside] it was 370.

The test is the same for the next values; noted with them: p-tau aggregation modulator screen of the compound library, ThS fluorescence net change.
Take `C[C@]1(Cn2ccnn2)[C@H](C(=O)O)N2C(=O)C[C@H]2S1(=O)=O` [Tazobactam]: the ThS net change came out at 834.
`O=c1[nH]c(=O)n(C2CCCO2)cc1F` (stereo not shown) [Tegafur]: the ThS net change was found to be 448.
The same measure, in the same setting: in the case of `CCCc1nc2c(C)cc(-c3nc4ccccc4n3C)cc2n1Cc1ccc(-c2ccccc2C(=O)O)cc1` [Telmisartan] it was 454; in that of `CN1C(C(=O)Nc2ccccn2)=C(O)c2sccc2S1(=O)=O` [Tenoxicam], 416.
`CN(C/C=C/C#CC(C)(C)C)Cc1cccc2ccccc12` [Terbinafine] gave a ThS net change of 506.
Still for that read-out and setting: in the case of `O=C(O)CNC(=O)C(CS)Cc1ccccc1` (stereo not shown) [Thiorphan] it was 462; in that of `CC(C)(C)NC[C@H](O)COc1nsnc1N1CCOCC1.O=C(O)/C=C\C(=O)O` [Timolol maleate salt], 414.
Same read-out and setting: to `Cc1ccc(S(=O)(=O)NC(=O)NN2CCCCCC2)cc1` [Tolazamide] belongs 458.
